Marks after values point to notes of the source that are not given here. Blank lines part the entries; values can stand above or below the compound they belong to.
What was measured:
[1] = Stability of LUME and 97-63 in rat plasma (auto-sampler, bench top, freeze/thaw, freezer); format: in vitro ADME; details: n = 6
Method: All stability studies were conducted at two concentration levels, i.e., QC low and QC high, using six replicates at each concentration levels. […] The peak areas of analyte and IS obtained at initial cycle were used as the reference to determine the stability at subsequent points. The stability of LUME and 97–63 in the biomatrix during 6 hrs of exposure at room temperature in rat plasma (bench top (BT)) was determined at ambient temperature (25 ± 2°C). Freeze/thaw (FT) stability was evaluated up to three cycles. In each cycle, samples were frozen for at least 12 hrs at −70 ± 10°C. Freezer stability of both analytes in rat plasma was assessed by analysing the QC samples stored at −70 ± 10°C for at least 15 days. Samples were considered to be stable if assay values were within the acceptable limits of accuracy (i.e., ±15% deviation) and precision (i.e., ±15% RSD).

[2] = set-up: method as in PMID 21428247; details: cited from earlier work
[3] = set-up: method as in PMID 21428247; details: cited from earlier work; remark: listed apart in the source
[4] = Oral pharmacokinetic interaction study of LUME and 97-78 in rats (LC-ESI-MS/MS, non-compartmental analysis); format: in vivo, male Sprague–Dawley rats; details: for RB% (relative bioavailability = AUC coadmin/AUC control × 100): LUME 10 mg/kg oral with 97-78 70 mg/kg oral vs LUME alone; for AUC(0-inf) / AUC(0-t) / CL/F / Cmax / Tmax / Vd/F / half-life: male, Sprague-Dawley, rat, plasma, po, 10 mg/kg, rats n = 5, mean ± SD
Method: Study was performed in male Sprague–Dawley rats (n = 5, weight range 200–220 g). The rats were fasted overnight (14–16 hrs) prior to the experiment but given free access to water. Rats were divided into three groups (n = 5 each): two control groups (LUME, 10 mg/kg, oral, suspension in 0.25% sodium CMC and 97–78, 70 mg/kg, oral, suspension in 0.25% sodium CMC), and one co-administration group (70 mg/kg of oral 97–78 and 10 mg/kg of oral LUME). Blood samples (approximately 0.25 mL) were collected from the retro-orbital plexus into heparinized microfuge tubes at 0.25, 0.50, 1, 3, 6, 9, 11, 13, 15, 24, 48, 72, and 120 hrs post-dosing and plasma was harvested by centrifuging the blood at 15,000xg for 10 min and stored frozen at −70 ± 10°C until bio-analysis.
Plasma data were subjected to non-compartmental pharmacokinetics analysis using WinNonlin (version 5.1, Pharsight Corp, Mountain View, CA, USA). The observed maximum plasma concentration (Cmax) and the time to reach the maximum plasma concentration (Tmax) were obtained by visual inspection of the experimental data. Area under the plasma concentration-time curve from time zero to the last quantifiable concentration (AUC0-t) was calculated using linear trapezoidal rule. The total area under the plasma concentration–time curve from time zero to time infinity (AUC0-∞) was calculated as the sum of AUC0-t and Clast/kel, where, Clast represents the last quantifiable concentration and Kel represents the terminal phase rate constant. The apparent elimination half-life (t1/2) was calculated as 0.693/kel and the kel was estimated by linear regression of the plasma concentrations in the log-linear terminal phase. The clearance (Cl/F); where F represents the oral bioavailability, was calculated as dose/AUC, and the volume of distribution (Vd/F) was calculated as (Cl/F)/kel. The data is presented as a mean ± SD. The pharmacokinetic parameters were compared using Student’s t test. A P-value of <0.05 was considered significant. The relative bioavailability (RB %) was calculated as follows: RelativebioavailabilityRB%=AUCcoadimin/AUCcontrol×100

[5] = 10 ng/mL, 6 hrs (BT) bench top 25 ± 2°C
[6] = 10 ng/mL, 24 hrs (AS) auto-sampler at 4°C, processed samples
[7] = 10 ng/mL, FT-3 (three freeze/thaw cycles, −70 ± 10°C)
[8] = 400 ng/mL, 6 hrs (BT) bench top 25 ± 2°C
[9] = 400 ng/mL, 24 hrs (AS) auto-sampler at 4°C, processed samples
[10] = 400 ng/mL, FT-3 (three freeze/thaw cycles, −70 ± 10°C)
[11] = LUME 10 mg/kg with 97-78 70 mg/kg oral, rats
[12] = LUME 10 mg/kg oral co-administered with 97-78 70 mg/kg oral
[13] = control: LUME 10 mg/kg oral alone

Stability in rat plasma: Accuracy (%) [1, 5]: 93.85%
Stability in rat plasma: Accuracy (%) [1, 6]: 104.67%
Stability in rat plasma: Accuracy (%) ([1]; 10 ng/mL, 15 days at −70°C): 100.47%
Stability in rat plasma: Accuracy (%) [1, 7]: 98.16%
Stability in rat plasma: Accuracy (%) [1, 8]: 95.85%
Stability in rat plasma: Accuracy (%) [1, 9]: 100.45%
Stability in rat plasma: Accuracy (%) ([1]; 400 ng/mL, 15 days at −70°C): 98.72%
Stability in rat plasma: Accuracy (%) [1, 10]: 99.79%
Structure (SMILES): C=C(c1ccc(OC(C)(C)CO)cc1)C1OCC2(OO1)C1CC3CC(C1)CC2C3 (centres unmarked) [97-63]

effect of LUME co-administration on PK parameters of 97-78 other than Tmax ([4]; 97-78 70 mg/kg with LUME 10 mg/kg oral, rats): no significant effect
Structure (SMILES): C=C(c1ccc(OC(C)(C)COC(=O)CCC(=O)O)cc1)C1OCC2(OO1)C1CC3CC(C1)CC2C3 (centres unmarked) [97-78]
conversion into active metabolite 97-63 in vivo [2]: rapidly and completely converted
conversion to 97-63 in plasma [3]: rapidly converted

Stability in rat plasma: Accuracy (%) [1, 5]: 101.73%
Stability in rat plasma: Accuracy (%) [1, 6]: 103.72%
Stability in rat plasma: Accuracy (%) ([1]; 10 ng/mL, 15 days at −70°C): 105.73%
Stability in rat plasma: Accuracy (%) [1, 7]: 99.48%
Stability in rat plasma: Accuracy (%) [1, 8]: 101.03%
Stability in rat plasma: Accuracy (%) [1, 9]: 101.51%
Stability in rat plasma: Accuracy (%) ([1]; 400 ng/mL, 15 days at −70°C): 102.54%
Stability in rat plasma: Accuracy (%) [1, 10]: 106.78%
RB% (relative bioavailability = AUC coadmin/AUC control × 100) ([4]; rats): 64.41^* %
RB% (relative bioavailability = AUC coadmin/AUC control × 100) ([4]; rats, listed as lumefantrine): 64.41%
decrease of AUC0-∞ of orally administered LUME in presence of 97-78 ([4]; LUME 10 mg/kg with 97-78 70 mg/kg oral vs LUME alone, rats, p <0.05): 63.26%
effect of 97-78 co-administration on Cmax of LUME [4, 11]: not significantly altered
effect of 97-78 co-administration on Tmax of LUME [4, 11]: not significantly altered
AUC(0-inf) [4, 12]: 11000 ± 660 ng·h/mL
AUC(0-t) [4, 12]: 10600 ± 710 ng·h/mL
CL/F [4, 12]: 15.2 mL/min/kg
Cmax [4, 12]: 1920 ± 620 ng/mL
Tmax [4, 12]: 4 ± 2.45 h
Vd/F [4, 12]: 62.7 ± 8.4 L/kg
half-life [4, 12]: 47.8 ± 6.48 h
AUC(0-inf) [4, 13]: 17400 ± 3290 ng·h/mL
AUC(0-t) [4, 13]: 16500 ± 2960 ng·h/mL
CL/F [4, 13]: 9.83 mL/min/kg
Cmax [4, 13]: 1810 ± 750 ng/mL
Tmax [4, 13]: 3.75 ± 1.5 h
Vd/F [4, 13]: 39.5 ± 6.26 L/kg
half-life [4, 13]: 46.9 ± 6.52 h
Structure (SMILES): CCCCN(CCCC)CC(O)c1cc(Cl)cc2c1-c1ccc(Cl)cc1C2=Cc1ccc(Cl)cc1 (centres unmarked) [LUME, 2-dibutylamino-1-[2,7-dichloro-9-(4-chlorobenzylidene)-9H-fluoren-4-yl]-ethanol]

Reference: publication PMC4429480, “Simultaneous quantification of proposed anti-malarial combination comprising of lumefantrine and CDRI 97–78 in rat plasma using the HPLC–ESI-MS/MS method: application to drug interaction study” (Malaria Journal, 2015)
